Reference: the NIST ThermoML archive (doi:10.1016/j.fluid.2013.11.030)
Numbers after ± are expanded uncertainties. Values belong to the compound of their own block, whether it stands above or below them.

Conditions: Liquid, Ebulliometric method (Recirculating still)

SMILES: CCCCCCBr [1-bromohexane]
- vapor or sublimation pressure (428.5 K): 101.33 ± 1.5 kPa

- vapor or sublimation pressure (471.6 K): 101.33 ± 1.4 kPa
SMILES: Cn1ccnc1 [1-methylimidazole]

SMILES: CC(C)=O [acetone]
- vapor or sublimation pressure (329.3 K): 101.33 ± 1.5 kPa
